Test results as given in patent US9707200B2, “Metabolism-improving agent comprising rare fatty acid” (KYOTO UNIVERSITY, priority 2012, dated 2017).
One block for each compound: values may come before it.

Legend:
PPARγ = target: T1, PPARγ (Homo sapiens, UniProt P37231); experiment: PPARγ ligand activity, GAL4-PPARγ reporter luciferase assay in CV-1 cells; type: cell-based; details: 24 hr incubation, KetoA and HYA each at 30 μM, other fatty acids by a similar method
T1 construct: expressed in transfected cells; host or cells: CV-1 (African green monkey kidney)
T1 sequence (P37231 238-503 limits assumed): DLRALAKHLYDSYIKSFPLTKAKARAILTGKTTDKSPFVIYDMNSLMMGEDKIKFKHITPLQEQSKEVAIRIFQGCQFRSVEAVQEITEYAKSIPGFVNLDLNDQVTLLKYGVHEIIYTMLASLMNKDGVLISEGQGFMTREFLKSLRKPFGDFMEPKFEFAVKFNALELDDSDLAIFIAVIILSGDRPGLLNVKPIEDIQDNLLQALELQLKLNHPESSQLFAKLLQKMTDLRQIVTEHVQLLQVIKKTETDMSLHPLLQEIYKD
Procedure: To evaluate the function of oxo fatty acid and the like, PPARα, γ-activating action was measured first. The measurement was performed in reference to Nobuyuki Takahashi et al., FEES Letters 514 (2002) p. 315-322, “Dual action of isoprenols from herbal medicines on both PPARgamma and PPARalpha in 3T3-L1 adipocytes and HepG2 hepatocytes.”, the section of Materials and Methods “Reporter plasmids and luciferase assays”. To be specific, a plasmid containing DNA encoding a fused protein of PPARα, γ ligand binding region and GAL4 DNA binding region (pM-hPPARα or pM-hPPARγ), a reporter plasmid containing GAL4 binding DNA sequence linked to luciferase (p4xUASg-tk-luc), and internal control (pRL-CMV) to standardize transfection efficiency were introduced into CV-1 cell derived from the kidney of African green monkey. The ligand described below was added to the cells and, after incubation for 24 hr, luciferase activity was measured. As a ligand, KetoA and HYA were each added at 30 μM.
The concentration of the sample was adjusted with ethanol. Ethanol was used as a negative control, […], and GW7647 (10 nM) and Troglitazone (5 μM) were used as […].

KKAy mouse = experiment: Effect in obesity or diabetes model mouse fed high-fat diet with added fatty acid; type: in vivo; details: for body weight: 4 weeks; for body weight / blood glucose level: vs control group
Procedure: (1) Using KKAy mouse as obesity or diabetes model mouse, the effect of KetoA, HYA was evaluated. KKAy mice (KKAy/TaJcl, male, 4-week-old, purchased from CLEA Japan, Inc. and individually bred) were preliminarily bred on a commercially available normal diet (ND) for 1 week, divided into 5 groups, and each group was bred on a high-fat diet (HFD) as a basic feed and given a non-addition feed (control group), or a feed added with different amounts of KetoA and HYA for 4 weeks. The KetoA, HYA-added feed was prepared by adding KetoA, HYA to HFD such that the amount to be added was 0.05% (w/w) (0.05% group) or 0.1% (w/w) (0.1% group).
(2) The profile of the body weight and blood glucose level of the KKAy mouse was measured. After the start of the test feed breeding, the oxygen consumption level was measured on day 16-19, an oral glucose loading test was performed on day 24, and the rectal temperature was measured on day 26. The next day of the completion of experimental breeding, the KKAy mouse was dissected, and the organ weight and plasma neutral fat level were measured.

HepG2 cells [1] = experiment: Effect on LXR agonist-induced expression of fatty acid synthesis genes, real-time PCR; type: cell-based, human; details: 10 nM T0901317 + 60 μM fatty acid, 24 hr
Procedure: Using human liver cancer-derived HepG2 cells (cell No.; JCRB1054, the Health Science Research Resources Bank), a suppressive effect on fatty acid synthesis promotion induced by LXR agonist was evaluated by reference to the method of Zaima et al. (Journal of Lipid Research 47, 2712-2717, 2006).
(§1) HepG2 cells (2.0×10^5 cells/mL) were cultured in DMEM medium containing 10% FES for 24 hr, and the medium was exchanged with 0.1% BSA-containing DMEM medium containing 10 nM LXR agonist T0901317 (Cayman Chemicals) and 60 μM various fatty acid. After culture for 24 hr, the cells were recovered, and total RNA was extracted using Sepasol reagent (Nacalai Tesque). After DNase treatment, reverse transcription was performed using SuperScriptII (Invitrogen) to give a cDNA solution. Using SYBR Green Mix (Bio-Rad, Richmond, Calif.) and gene-specific primer (Table 1), real-time PCR was performed as follows.
1. Reaction at 96° C., 15 min, 2. reaction at 96° C., 15 sec, 3. reaction at 60° C. for 30 sec, 4. measurement of fluorescence, 5. 2-4 were repeated 40 times, 6. the melting curve was measured from 65° C. to 95° C. at 0.4° C. intervals. As the internal standard, 18S rRNA was used. The genes involved in the fatty acid synthesis as measured were Sterol regulatory element binding protein-1c (SREBP-1c), Stearoyl coenzyme A desaturase-1 (SCD-1), Fatty acid synthase (FAS), and Acetyl CoA carboxylase-1 and -2 (ACC-1, 2). As for the amount of accumulated intracellular TG, the lipid was extracted with chloroform-methanol, and quantified by triglyceride-′E Test Wako (Wako Pure Chemical Industries, Ltd.).

HepG2 cells [2] = experiment: Immature and mature SREBP-1 protein expression induced by LXR agonist, Western blot; type: cell-based, human; details: 10 nM T0901317 + 60 μM fatty acid, 24 hr; for immature SREBP-1 expression induced by LXR agonist: membrane fraction; for mature SREBP-1 expression induced by LXR agonist: nuclear fraction
Procedure: as §1
In addition, the protein expression level of immature and mature SREBP-1c was measured. Cells treated as mentioned above were dispersed in buffer A (250 mM sucrose, 10 mM HEPES-KOH, 10 mM KCl, 1.5 mM MgCl2, 1 mM EDTA-Na, 1 mM EGTA-Na, pH 7.6) containing a protease inhibitor, passed 20 times through a 23 gauge injection needle, and centrifuged (1,000×g, 4° C., 5 min) to separate into supernatant 1 and precipitate 1. The precipitate 1 was re-dissolved in buffer B (20 mM HEPES-KOH, 0.42 M NaCl, 2.5% glycerol, 1.5 mM MgCl2, 1 mM EDTA-Na, 1 mM EGTA-Na, pH 7.6), and centrifuged (10^5×g, 4° C., 15 min). The obtained supernatant 2 was used as a nuclear fraction (including mature form). The supernatant 1 was further centrifuged (10^5×g, 4° C., 15 min), and the obtained precipitate 2 was dissolved in cell lysate (10 mM Tris-HCl, 100 mM NaCl, 1% SDS, 1 mM EDTA-Na, 1 mM EGTA-Na) and used as a membrane fraction (including immature form). Using these as samples, measurement was performed by Western blot method using anti-SREBP-1 polyclonal antibody (Santa Cruz). Using Dual luciferase system (Promega), antagonizing action on LXR was evaluated by luciferase assay. p3xIR1-tk-Luc, pCMX-hLXRa, pRL-CMX were introduced into HepG2 cell. After culture in a 0.1% BSA-containing serum-free medium containing various fatty acids and T0901317 for 24 hr, the luciferase activity was measured.

- PPARγ agonist activity (relative luciferase activity) (PPARγ): some PPARγ agonist activity
Structure (SMILES): CCCCC/C=C\CC(O)CCCCCCCCC(=O)O (stereo not drawn) [HYA, 10-hydroxy-cis-12-octadecenoic acid]
- body weight (KKAy mouse; HFD with 0.05% (w/w) added): significant suppression of body weight increase
- blood glucose level (KKAy mouse; added-feed group, amount not specified): tendency toward suppression of blood glucose level increase
- ACC1 mRNA expression induced by LXR agonist (HepG2 cells [1]): down regulation
- ACC2 mRNA expression induced by LXR agonist (HepG2 cells [1]): down regulation
- FAS mRNA expression induced by LXR agonist (HepG2 cells [1]): down regulation
- SCD-1 mRNA expression induced by LXR agonist (HepG2 cells [1]): down regulation
- suppression of SREBP-1c mRNA expression induced by LXR agonist (HepG2 cells [1]): strong suppressive action
- immature SREBP-1 expression induced by LXR agonist (HepG2 cells [2]): strongly suppressed
- mature SREBP-1 expression induced by LXR agonist (HepG2 cells [2]): strongly suppressed

- PPARγ agonist activity (relative luciferase activity) (PPARγ): strong PPARα and γ agonist activity
Structure (SMILES): CCCCC/C=C\CC(=O)CCCCCCCCC(=O)O [KetoA, 10-oxo-cis-12-octadecenoic acid]
- blood glucose level (KKAy mouse; 0.05% group, at 4 weeks of test diet): tendency toward suppression of blood glucose increase
- intraperitoneal white fat weight (KKAy mouse; 0.1% group, after 4 weeks): significant decrease
- plasma neutral fat level (KKAy mouse; 0.1% group, after 4 weeks): significant decrease
- blood glucose level (KKAy mouse; 0.1% group, at 4 weeks of test diet): stronger, significant hypoglycemic action
- body weight (KKAy mouse; HFD with 0.05% (w/w) added): body weight increase suppression tendency
- body weight (KKAy mouse; HFD with 0.1% (w/w) added): significant suppression of body weight increase
- oxygen consumption level (KKAy mouse; day 16-19, added-feed group vs control group): increase in the oxygen consumption level
- rectal temperature (KKAy mouse; day 26, added-feed group vs control group): increase in the rectal temperature
- ACC1 mRNA expression induced by LXR agonist (HepG2 cells [1]): down regulation
- ACC2 mRNA expression induced by LXR agonist (HepG2 cells [1]): down regulation
- FAS mRNA expression induced by LXR agonist (HepG2 cells [1]): down regulation
- SCD-1 mRNA expression induced by LXR agonist (HepG2 cells [1]): down regulation
- suppression of SREBP-1c mRNA expression induced by LXR agonist (HepG2 cells [1]): strong suppressive action
- immature SREBP-1 expression induced by LXR agonist (HepG2 cells [2]): strongly suppressed
- mature SREBP-1 expression induced by LXR agonist (HepG2 cells [2]): strongly suppressed
